From ChEMBL document CHEMBL1133412, “Rational design, synthesis and structure-activity relationships of antitumor (E)-2-benzylidene-1-tetralones and (E)-2-benzylidene-1-indanones” (Bioorg Med Chem Lett, 2000) come the findings set out here.

The test system of one test is B16. The test is described as follows: Cytotoxicity was evaluated against B16 tumor cell lines; Significant activity. The format is functional, cell-based. Particulars: Mus musculus.
A further test deals with L1210. The test is described as follows: Cytotoxicity evaluated against L1210 tumor cell lines; Significant activity. The format is functional, cell-based. Particulars: Mus musculus.
Another test relates to NCI-H596. The test is described as follows: Cytotoxicity evaluated against H596 tumor cell lines; Significant activity. The format is functional, cell-based. Particulars: Homo sapiens.
For a further test, the system named is A549. Put plainly: Cytotoxicity evaluated against A549 tumor cell lines; significant activity. The format is functional, cell-based. Particulars: Homo sapiens.
Another test deals with CCRF-CEM. The test is described as follows: Cytotoxicity evaluated against CEM tumor cell lines; Significant activity. Type of test: functional, cell-based. The following applies: Homo sapiens.
A further test relates to MOLT-4. Put plainly: Cytotoxicity was evaluated against Molt-4 tumor cell lines. Particulars: Homo sapiens. The format is functional, cell-based.
The subject of a further test is K562. The test is described as follows: Cytotoxicity evaluated against K562 tumor cell lines; Significant activity. Type of test: functional, cell-based. The following applies: Homo sapiens.
The next test concerns NIH3T3. The test is described as follows: Cytotoxicity evaluated against NIH3T3 tumor cell lines; Significant activity. Type of test: functional, cell-based. Particulars: Mus musculus.
A further test has as its system NCI-H292. The test is described as follows: Cytotoxicity evaluated against H292 tumor cell lines; Significant activity. The following applies: Homo sapiens. Type of test: functional, cell-based.
In test [1] the test system is WI-38. The test is described as follows: Cytotoxicity was evaluated against WI38 tumor cell lines; Significant activity. The following applies: Homo sapiens. Type of test: functional, cell-based.
For another test, the system named is HL-60. Put plainly: Cytotoxicity evaluated against HL-60 tumor cell lines; Significant activity. Type of test: functional, cell-based. The following applies: Homo sapiens.
For the next test, the system named is MCF7. The test is described as follows: Cytotoxicity evaluated against MCF-7 tumor cell lines; Significant activity. The format is functional, cell-based. The following applies: Homo sapiens.
In another test the test system is WIL2. The test is described as follows: Cytotoxicity evaluated against WIL2 tumor cell lines; Significant activity. The format is functional, cell-based. Particulars: Homo sapiens.
The test system of another test is Jurkat. Put plainly: In vitro test for antitumor activity against human Jurkat cell line using a formazan dye (MTT) conversion assay. Type of test: functional, cell-based.
In test [2] the test system is WI-38. The test is described as follows: Cytotoxicity evaluated against WI38 tumor cell lines; Significant activity. Particulars: Homo sapiens. The format is functional, cell-based.
A further test relates to Tumor cell line. Put plainly: In vivo testing against tumor cells that were placed in the polyvinylidene fluoride (PVDF) hollow fibers of capsules and then implanted in to mice intraperitoneally or subcutaneously. Type of test: functional, Mus musculus.

Each structure is given as a SMILES string. Some results are limits rather than exact numbers.

The term IC50 denotes the point on the concentration scale where inhibition reaches its midpoint. A lower IC50 goes with greater potency. Regarding `COc1cc2c(c([N+](=O)[O-])c1O)C/C(=C\c1cc(C)c(O)c(C)c1)C2=O`, the Cytotoxicity entry with B16, in the test with L1210, in the test on NCI-H596, in the test with A549, with CCRF-CEM and in the test with MOLT-4 was “Significant activity” throughout. Moreover, the Cytotoxicity entry in the test on K562, with NIH3T3, in the test with NCI-H292, in the test on WI-38 [1], with HL-60 and in the test with MCF7 was “Significant activity” throughout. Moreover, in the test on WIL2, the Cytotoxicity entry was “Significant activity”. The molecule further displayed an IC50 in the test with Jurkat of 9.3 µM.
Turning to `COc1cccc(/C=C2\CCc3cc(OC)c(OC)cc3C2=O)c1`, the Cytotoxicity result in the test on B16, in the test with L1210, in the test with NCI-H596, in the test with A549, in the test with CCRF-CEM and in the test on MOLT-4 was “Significant activity” throughout. Also, the Cytotoxicity entry in the test on K562, with NIH3T3, in the test on NCI-H292, in the test with WI-38 [1], in the test with HL-60 and in the test with MCF7 was “Significant activity” in each case. Moreover, in the test on WIL2, the Cytotoxicity entry is “Significant activity”. In addition, the midpoint of inhibition with Jurkat, the IC50, lay at 5 µM.
For `COc1cc2c(c(N)c1OC)C(=O)/C(=C/c1cc(C)c(O)c(C)c1)C2`, the Cytotoxicity entry in the test with WI-38 [2], in the test with B16, in the test with L1210, in the test on NCI-H596, in the test with A549 and in the test with CCRF-CEM was “Significant activity” throughout. Further, the Cytotoxicity result in the test with MOLT-4, in the test on K562, with NIH3T3, in the test on NCI-H292, in the test with HL-60 and in the test on MCF7 was “Significant activity” in each case. For the same molecule, the Cytotoxicity entry in the test on WIL2 is “Significant activity”. Moreover, the “IP+SC score” value with Tumor cell line was greater than 20. The molecule also came in with an IC50 in the test on Jurkat of 0.004 µM.
